Results reported in patent publication US20150004100A1, “HETEROCYCLIC COMPOUNDS AS IMAGING PROBES OF TAU PATHOLOGY” (GE HEALTHCARE LIMITED, priority 2011, published 2015).
“Also recorded” adds a separate entry of the source.

Key:
tau+ NFTs [1] = test: Tissue binding assay (fluorescence), NFTs in human AD tissue sections; parameters: key to NFTs (staining): −: No staining; +: weak staining; ++: moderate staining; +++: intense staining; conditions: for NFTs (staining): Table 2, 100 μM, human AD tissue; for Binding to NFTs (in words): high test concentration, AD tissue
Experimental: (§1) Human brain tissue samples from the entorhinal cortex of patients with Alzheimer's disease (AD) and healthy controls were obtained from Tissue Solutions (Tissue Solutions Ltd, Glasgow, UK). Tissue samples were collected after informed written consent, and specimens were dissected at the tissue bank and snap-frozen for cryopreservation at a time interval of between 3 and 18 h after death. The frozen tissue was embedded in TissueTek® (VWR) and sectioned using a Microm HM560 cryostat (Thermo Scientific). Serial 12 μm sections were mounted onto SuperFrost®+ glass slides (VWR) and stored a −70° C.
(§2) The binding of compounds to tau+NFTs and Aβ+ plaques in human AD tissue were evaluated based on fluorescence.
(§3) Briefly, tissue sections were defrosted and fixed in ice-cold 70% ethanol. All tissue sections were rinsed with PBS after fixation and between all subsequent incubation steps. To quench autofluorescence, tissue sections were incubated first with 0.25% KMnO4 (Sigma-Aldrich) in PBS for 12 min, and then with 0.1% […]/0.1% oxalic acid (both reagents from Sigma-Aldrich) in PBS for 1 min. The tissue sections were blocked with 2% BSA in PBS for 10 min, and then incubated with the test compounds at 100 μM concentration for 1 h at RT. […] Finally the tissue sections were rinsed in PBS, and mounted in SlowFade® mounting media (Invitrogen). Images of labelled tissue sections were captured using a Nikon digital camera connected to a Leica microscope and using the NIS Elements D software (Nikon). Images were further processed with the Photoshop® software (Adobe).

NFTs and plaques = conditions: literature reports; cited from earlier work
Aβ+ plaques [2] = test: Tissue binding assay (fluorescence), plaques in human AD tissue sections; parameters: key to Plaques (staining): −: No staining; +: weak staining; ++: moderate staining; +++: intense staining; conditions: for Plaques (staining): Table 2, human AD tissue
Aβ+ plaques [3] = test: as above; parameters: key to Plaques (staining): −: No staining; +: weak staining; ++: moderate staining; +++: intense staining; conditions: for Plaques (staining): Table 2, 100 μM, human AD tissue; for Binding to plaques (in words): high test concentration, AD tissue
Experimental: as §1, §2, §3

tau+ NFTs [4] = test: Tissue binding assay (fluorescence), NFTs in human AD tissue sections; parameters: key to NFTs (staining): −: No staining; +: weak staining; ++: moderate staining; +++: intense staining; conditions: for NFTs (staining): Table 2, human AD tissue
[5] = system: tau aggregates over Aβ1-42 amyloid; conditions: in vitro, Kudo et al. 2005; cited from earlier work
human liver microsomes = test: Liver microsome stability assay, human; type: in vitro ADME; conditions: 1 μM, 37° C., parent compound remaining, criterion >50%
Experimental: (§4) The liver microsome stability assay provides an estimate of compound stability and rate of metabolism in vivo. The desirable criterion for this assay is >50% parent compound after 30 min.
(§5) A 1 μM compound solution was incubated with rat or human liver microsomes (20 mg/ml) at 37° C. and the amount of parent compound remaining following the incubation was determined after 5 and 30 min of incubation using LC-MS.

[6] = literature reports; cited from earlier work
[7] = PAMPA (parallel artificial membrane permeability assay); type: in vitro ADME; conditions: 10 μM, 5 h at RT; criterion >−6
Experimental: The PAMPA assay is used to determine how well a compound crosses a cell membrane by measuring its passage through a phosphotidyl choline barrier. A permeability coefficient >−6 indicates high permeability across lipid membranes and is indicative of a compounds ability to cross the blood brain barrier.
A 10 μM solution was incubated on a PDVF membrane coated with a 2% phoshotidyl choline solution for 5 h at RT. Membrane penetration was measured using LC-MS.

rat liver microsomes = test: Liver microsome stability assay, rat; type: in vitro ADME; conditions: 1 μM, 37° C., parent compound remaining, criterion >50%
Experimental: as §4, §5

[8] = Protein binding assay, rat brain homogenates (rapid equilibrium dialysis); type: in vitro ADME; conditions: rat brain homogenate, % bound, criterion <99%
Experimental: (§6) The protein binding assays provide an estimate of free (unbound) fraction of the compound in the blood or brain in vivo. […] The desirable criterion for this assay is <99% of test compound bound.
(§7) Test compounds were first dissolved in DMSO to a concentration of 50 μM. This was followed by incubation in samples of human plasma and rat brain homogenates (final test concentration 1 μM). Binding of compounds to proteins was determined in the samples by rapid equilibrium dialysis after 5 and 30 min of incubation.

[9] = Protein binding assay, human plasma (rapid equilibrium dialysis); type: in vitro ADME; conditions: % bound, criterion <99%
Experimental: as §6, §7

[10] = In vivo cold bio-distribution in rat (brain uptake, LC-MS)
Experimental: All animal studies were in compliance with local rules and regulations. Test compounds were administered by intravenous (i.v) injection through the tail vein of naïve male Wistar rats (50 μg test compound/rat). The animals were sacrificed by dislocation of the neck at 2, 10, 30, 60 min post-injection (p.i). The brain and plasma were collected from each animal. The concentration of test compound was measured in the plasma and brain homogenates using LS-MS, and calculated as % compound/g (% ID/g).

[11] = lower test concentrations, AD tissue

CC(=C(C#N)C#N)c1ccc2cc(N(C)CCF)ccc2c1 [FDDNP, 2-(1-(2-(N-(2-fluoroethy)-N-methylamino)-naphthalene-6-yl)-ethylidende)-malononitrile, reference compound]
NFTs (staining) (tau+ NFTs [1]): +++
Binding to NFTs (in words) (tau+ NFTs [1]): detected to both NFTs and plaques
Reported binding to NFTs / plaques (in words) (NFTs and plaques): binds to both NFTs and plaques
Plaques (staining) (Aβ+ plaques [2]; 1 μM): +
Plaques (staining) (Aβ+ plaques [2]; 10 μM): ++
Plaques (staining) (Aβ+ plaques [3]): +++
Binding to plaques (in words) (Aβ+ plaques [3]): detected to both NFTs and plaques
NFTs (staining) (tau+ NFTs [4]; 1 μM): +
NFTs (staining) (tau+ NFTs [4]; 10 μM): ++

CNc1ccc(-c2ccc3ccccc3n2)cc1 [BF-158]
Selectivity for tau aggregates over Aβ1-42 amyloid [5]: threefold

CC(C)NC(=O)c1nn(-c2ccc(Cl)cc2)c(=O)c2c(N)scc12 [ATPZ, reference compound]
Liver stability Human (% PCP) 5 min (human liver microsomes): 98.9 % PCP
Liver stability Human (% PCP) 30 min (human liver microsomes): 68.29 % PCP
NFTs (staining) (tau+ NFTs [1]): +++
Reported brain uptake in vivo (in words) [6]: high brain uptake in vivo
PAMPA Log Pe [7]: −5.24
Liver stability Rat (% PCP) 5 min (rat liver microsomes): 97.06 % PCP
Liver stability Rat (% PCP) 30 min (rat liver microsomes): 70.19 % PCP
fraction unbound at 1 μM [8]: 0.0906
Plaques (staining) (Aβ+ plaques [2]; 1 μM): −
Plaques (staining) (Aβ+ plaques [2]; 10 μM): −
Plaques (staining) (Aβ+ plaques [3]): +
fraction unbound at 1 μM [9]: 0.0098
NFTs (staining) (tau+ NFTs [4]; 1 μM): +
NFTs (staining) (tau+ NFTs [4]; 10 μM): ++

CC(C)NC(=O)c1nn(-c2ccc(OCCF)cc2)c(=O)c2c(N)scc12 [Compound 38]
Liver stability Human (% PCP) 5 min (human liver microsomes): 87.2 % PCP
Liver stability Human (% PCP) 30 min (human liver microsomes): 74.4 % PCP
NFTs (staining) (tau+ NFTs [1]): +++
Binding to NFTs (in words) (tau+ NFTs [1]): binds to both NFTs (A) and plaques (B); also recorded: bind to both NFTs and plaques
PAMPA Log Pe [7]: −5.02
Liver stability Rat (% PCP) 5 min (rat liver microsomes): 81.7 % PCP
Liver stability Rat (% PCP) 30 min (rat liver microsomes): 56.4 % PCP
fraction unbound at 1 μM [8]: 0.428
Plaques (staining) (Aβ+ plaques [2]; 1 μM): −
Plaques (staining) (Aβ+ plaques [2]; 10 μM): +
Plaques (staining) (Aβ+ plaques [3]): ++
Binding to plaques (in words) (Aβ+ plaques [3]): binds to both NFTs (A) and plaques (B); also recorded: bind to both NFTs and plaques
fraction unbound at 1 μM [9]: 0.0642
NFTs (staining) (tau+ NFTs [4]; 1 μM): +
NFTs (staining) (tau+ NFTs [4]; 10 μM): ++
Binding preference for NFTs (in words) (tau+ NFTs [4]; [11]): binds preferentially to NFTs; also recorded: bind with a preference for NFTs
tissue uptake at 2 min ([10]; male, Wistar, rat, brain, iv, 50 μg/rat, 2 min p.i.): > 0.2 %ID/g
tissue uptake at 10 min ([10]; male, Wistar, rat, brain, iv, 50 μg/rat, 10 min p.i.): 0.081 %ID/g
tissue uptake at 30 min ([10]; male, Wistar, rat, brain, iv, 50 μg/rat, 30 min p.i.): 0.021 %ID/g
tissue uptake at 60 min ([10]; male, Wistar, rat, brain, iv, 50 μg/rat, 60 min p.i.): 0.011 %ID/g
Clearance ratio 2:30 min ([10]; rat brain, 2 min vs 30 min p.i.): 13.3
Brain uptake and clearance (in words) ([10]; rat, from clearance ratio): rapid brain uptake followed by rapid clearance
Brain uptake % ID/g p.i ([10]; rat, i.v., 2 min p.i.): 0.28 % ID/g

[11CH3]Nc1ccc(-c2nc3ccc(O)cc3s2)cc1 [PiB, Pittsburgh compound B, reference compound]
NFTs (staining) (tau+ NFTs [1]): +++
Binding to NFTs (in words) (tau+ NFTs [1]): detected to both NFTs and plaques
Reported brain uptake in vivo (in words) [6]: high brain uptake in vivo
Reported binding to NFTs / plaques (in words) (NFTs and plaques): bind with a preference to Aβ+ plaques
Plaques (staining) (Aβ+ plaques [2]; 1 μM): ++
Plaques (staining) (Aβ+ plaques [2]; 10 μM): ++
Binding to plaques (in words) (Aβ+ plaques [2]; [11]): only bound to plaques
Plaques (staining) (Aβ+ plaques [3]): +++
Binding to plaques (in words) (Aβ+ plaques [3]): detected to both NFTs and plaques
NFTs (staining) (tau+ NFTs [4]; 1 μM): −
NFTs (staining) (tau+ NFTs [4]; 10 μM): +

Nc1ccc(-c2ccc3ccccc3n2)cc1 [BF-170]
Selectivity for tau aggregates over Aβ1-42 amyloid [5]: threefold
